Each structure is given as a SMILES string. pIC50: −log10 of the molar value.

One test addresses T1, CatB (Rattus norvegicus, UniProt P00787).
T1 construct: from tissue; host or cells: rat liver lysate / homogenate
Kind of test: IC50 by competition with radiolabeled general cathepsin probe DCG-04 in rat liver lysate. The class given is biochemical. As to conditions: 1 mg/ml rat liver lysate, inhibitor 20 minutes, then DCG-04 1 hour. On the procedure:
(§1) Also included in the table for comparison are known compounds JPMOEt and JPMOH (also known as JPM-565). See Meara and Rich, J. Med. Chem. 39:3357-3366, 1996; Bogyo et al, Chem. Biol. 7:27-38, 2000; and Joyce et al., Cancer Cell 5:443-453, 2004. The table also lists cathepsin targets and measured IC50 values for specific compounds. To determine these values, 1 mg/ml of rat liver lysate was incubated with a series of concentrations of the inhibitor for 20 minutes. Then, 1 ul of a radiolabled general cathepsin probe, DCG-04, was added to the solutions and incubated for 1 hour. After fixing and drying the gel, the residual enzyme activity was measured using ImageJ software. The measurements were then transferred to GraphPad Prism 4 to calculate the IC50 values.

A further test concerns the target T2, CatC (Rattus norvegicus, UniProt P80067).
T2 construct: from tissue; host or cells: rat liver lysate
T2 sequence (P80067 25-462): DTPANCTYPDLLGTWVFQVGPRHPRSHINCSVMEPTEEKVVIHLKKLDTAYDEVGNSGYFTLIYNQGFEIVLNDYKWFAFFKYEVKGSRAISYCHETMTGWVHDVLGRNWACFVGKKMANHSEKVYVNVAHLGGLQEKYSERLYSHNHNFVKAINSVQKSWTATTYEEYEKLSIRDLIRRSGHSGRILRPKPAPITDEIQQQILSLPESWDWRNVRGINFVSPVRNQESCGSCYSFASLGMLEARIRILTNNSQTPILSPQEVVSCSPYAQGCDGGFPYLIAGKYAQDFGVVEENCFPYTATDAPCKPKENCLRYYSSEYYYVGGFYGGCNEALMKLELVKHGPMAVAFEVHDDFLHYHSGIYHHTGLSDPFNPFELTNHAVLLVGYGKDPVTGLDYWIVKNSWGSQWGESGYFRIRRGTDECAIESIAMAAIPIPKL
Described as above. The class given is biochemical. The note with it: 1 mg/ml rat liver lysate, inhibitor 20 minutes, then DCG-04 1 hour. The protocol:
as §1

In the next test the target is T3, CatH (Rattus norvegicus, UniProt P00786).
T3 construct: from tissue; host or cells: rat liver lysate
T3 sequence (P00786 96-333): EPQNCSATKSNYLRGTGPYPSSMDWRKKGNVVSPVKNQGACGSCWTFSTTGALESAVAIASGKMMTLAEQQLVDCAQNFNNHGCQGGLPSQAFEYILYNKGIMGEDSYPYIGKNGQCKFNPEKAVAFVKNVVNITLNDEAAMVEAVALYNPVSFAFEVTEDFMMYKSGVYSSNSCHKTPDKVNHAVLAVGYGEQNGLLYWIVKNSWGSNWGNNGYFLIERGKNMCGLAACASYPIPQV
The description is as above. The class given is biochemical. The note with it: 1 mg/ml rat liver lysate, inhibitor 20 minutes, then DCG-04 1 hour. On the procedure:
as §1

The next test has as its target T4, CatZ (Cathepsin Z) (Rattus norvegicus, UniProt Q9R1T3).
T4 construct: from tissue; host or cells: rat liver lysate
The description is as above. The class given is biochemical. As to conditions: 1 mg/ml rat liver lysate, inhibitor 20 minutes, then DCG-04 1 hour. The protocol:
as §1

A further test concerns cathepsin targets. The test can be described thus: Cathepsin targets of the compounds (Table 4). The class given is biochemical, rat. The note with it: cathepsin target(s) inhibited; General = all cathepsins. On the procedure:
as §1

In a further test the target is T5, cathepsin B (Rattus norvegicus, UniProt P00787).
T5 construct: from tissue; host or cells: rat liver lysate / homogenate
T5 sequence (P00787 80-333): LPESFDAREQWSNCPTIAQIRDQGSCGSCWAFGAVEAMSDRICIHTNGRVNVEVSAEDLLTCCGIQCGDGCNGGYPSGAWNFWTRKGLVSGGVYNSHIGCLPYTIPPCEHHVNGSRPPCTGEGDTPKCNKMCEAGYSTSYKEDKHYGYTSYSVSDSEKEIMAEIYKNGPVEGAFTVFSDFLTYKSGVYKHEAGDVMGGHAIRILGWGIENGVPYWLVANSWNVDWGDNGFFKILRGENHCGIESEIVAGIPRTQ
The test can be described thus: Competition in rat liver homogenates, 125I-labeled JPM-OEt labeling. The class given is biochemical. As to conditions: FIG. 2, rat liver homogenates. The protocol:
(§2) The library compounds all contained a tyrosine residue at the R3 position. They contained either a leucine residue (top and middle panels) or a 4-methylphenylalanine residue (bottom panel) at the A2 position. The amine at R1 is indicated above each panel, with numbering as defined in Table 1. Samples were analyzed by SDS-PAGE followed by autoradiography. Controls (C) are shown where DMSO was added in place of the inhibitor. The parent compounds JPM-OEt (Et) and JPM-565 (OH) are also included as positive controls. Note the loss of reactivity for all (2R,3R) compounds and the change in specificity of JPM analogs in which the (2R,3R) (middle panel—OH and Et) is used in place of the (2S,3S) (top panel—OH and Et) epoxides.
(§3) Joyce et al., Cancer Cell 5:443-453, 2004.
(§4) FIGS. 3 and 4 show additional competition assays with other compounds of the invention at various concentrations. The compounds were added to total rat liver extracts at the indicated concentrations, as described above, and the mixtures were subsequently treated with ^125I-labeled JPM-OEt to label proteins with residual activity. The in vivo pharmacokinetic properties, potency, and selectivity of some of these compounds are further described in Sadaghiani et al., Chem. Biol. 14:499-511, 2007, which is incorporated herein by reference in its entirety.

Another test deals with other cathepsin targets. Kind of test: Competition/profiling in total rat liver extracts, 125I-labeled JPM-OEt labeling. The class given is biochemical. The note with it: FIG. 2, at concentrations as high as 50 micromolar. On the procedure: as §2, §3, §4

T4 sequence (Q9R1T3 64-306): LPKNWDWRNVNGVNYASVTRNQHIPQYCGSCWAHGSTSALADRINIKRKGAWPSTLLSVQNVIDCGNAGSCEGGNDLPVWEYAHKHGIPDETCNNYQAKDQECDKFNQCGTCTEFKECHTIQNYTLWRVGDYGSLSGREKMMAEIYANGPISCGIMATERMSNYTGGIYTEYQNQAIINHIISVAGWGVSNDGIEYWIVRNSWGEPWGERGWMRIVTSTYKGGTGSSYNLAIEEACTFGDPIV
T1 sequence (P00787 80-333): as the sequence (P00787 80-333) above

Regarding `CC(C)C[C@H](NC(=O)C1OC1C(=O)NCCc1ccc(O)cc1)C(=O)N[C@@H](Cc1ccc(O)cc1)C(N)=O` (single isomer, unassigned) [Compound 46], the pIC50 is 8.00 on CatB, below 4.30 at CatC, below 4.30 on CatH and below 5.00 on CatZ (Cathepsin Z). The Target result in the test with cathepsin targets is “Cat B”. Moreover, on cathepsin B, the “potency for cathepsin B compared to parent compound JPM-565” value was “retain similar potency for cathepsin B compared to parent compound JPM-565”. Further, the “activity against other cathepsin targets” value in the test with other cathepsin targets was “little or no activity against other cathepsin targets”.

On to `Cc1ccc(C[C@H](NC(=O)[C@H]2OC2C(=O)NCC(=O)O)C(=O)N[C@@H](Cc2ccc(O)cc2)C(N)=O)cc1` (stereo partly drawn) [Compound 16], for which the pIC50 was below 5.00 at CatC, below 5.00 on CatH and 7.00 at CatZ (Cathepsin Z). Moreover, the Target result in the test with cathepsin targets is “Cat Z^1”.

On to `CC(C)C[C@H](NC(=O)C1OC1C(=O)NCCc1ccc(O)cc1)C(=O)N[C@@H](Cc1ccc(O)cc1)C(N)=O` (stereo partly drawn) [Compound 25], for which the pIC50 at CatB is 7.70; on CatC it was 4.96; on CatH it was 4.68; on CatZ (Cathepsin Z) it was below 5.00. For the same compound, in the test on cathepsin targets, the Target entry is reported as “Cat B”.

Consider `CC(C)C[C@H](NC(=O)C1OC1C(=O)NCCCO)C(=O)N[C@@H](Cc1ccc(O)cc1)C(N)=O` (stereo partly drawn) [Compound 31], for which the negative-log IC50 (pIC50) is 8.00 on CatB, 4.96 at CatC, 5.26 on CatH and 5.96 at CatZ (Cathepsin Z). The Target result in the test with cathepsin targets is given as “Cat B”.

For the compound `CC(C)C[C@H](NC(=O)[C@H]1OC1C(=O)O)C(=O)N[C@@H](Cc1ccc(O)cc1)C(N)=O` (stereo partly drawn) [Compound 40], the pIC50 was 7.70 on CatB, 6.70 on CatC, 5.26 on CatH and 7.00 at CatZ (Cathepsin Z). Further, the Target result in the test with cathepsin targets is given as “General”.

As for `CC(C)C[C@H](NC(=O)C1O[C@H]1C(=O)NCCCO)C(=O)N[C@@H](Cc1ccc(O)cc1)C(N)=O` (stereo partly drawn) [Compound 52], the pIC50 at CatB was 7.30; at CatC, below 4.30; on CatH, below 4.30; at CatZ (Cathepsin Z), 5.74. For the same compound, the Target result in the test on cathepsin targets was “Cat B”. Also, the “potency for cathepsin B compared to parent compound JPM-565” value at cathepsin B is recorded as “retain similar potency for cathepsin B compared to parent compound JPM-565”. Besides, the “activity against other cathepsin targets” value with other cathepsin targets is reported as “little or no activity against other cathepsin targets”.

Take `CC(C)C[C@H](NC(=O)C1OC1C(=O)O)C(=O)N[C@@H](Cc1ccc(O)cc1)C(N)=O` (stereo partly drawn) [Compound 60]: the pIC50 on CatB is 6.40; at CatC it was below 4.60; at CatH it was below 4.60; on CatZ (Cathepsin Z), 7.00. In addition, the Target result with cathepsin targets was “Cat B & Z”.

As to `CC(C)C[C@H](NC(=O)[C@H]1O[C@@H]1C(=O)NCCc1ccc(O)cc1)C(=O)NCCc1ccccn1` [Compound 63], the pIC50 at CatB is 6.51; at CatC, below 5.00; at CatH it was below 5.00; on CatZ (Cathepsin Z), below 5.00. Further, the Target entry in the test on cathepsin targets is “Cat B & Z”.

Regarding `CC(C)C[C@H](NC(=O)[C@H]1O[C@@H]1C(=O)NCCc1ccc(O)cc1)C(=O)NCc1cccc2ccccc12` [Compound 66], the pIC50 at CatB is 6.49; on CatC, 5.24; at CatH, 5.21; on CatZ (Cathepsin Z) it was 6.10. The Target entry in the test on cathepsin targets is reported as “General”.

`NC(=O)[C@H](Cc1ccc(O)cc1)NC(=O)[C@H](CC1CCCCC1)NC(=O)C1OC1C(=O)O` (stereo partly drawn) [Compound 74]: the pIC50 on CatB is 5.71; at CatC, below 4.60; on CatH, below 4.60; at CatZ (Cathepsin Z) it was 6.52. In the test on cathepsin targets, the Target entry is recorded as “Cat B & Z”.

As for `CCC[C@H](NC(=O)C1O[C@H]1C(=O)O)C(=O)N[C@@H](Cc1ccc(O)cc1)C(N)=O` (stereo partly drawn) [Compound 75], the pIC50 at CatB is 6.57; on CatC, below 4.60; on CatH, below 4.60; at CatZ (Cathepsin Z), 6.70. In the test on cathepsin targets, the Target result is “Cat B & Z”.

Turning to `Cc1ccc(C[C@H](NC(=O)C2O[C@H]2C(=O)O)C(=O)N[C@@H](Cc2ccc(O)cc2)C(N)=O)cc1` (stereo partly drawn) [Compound 76], the pIC50 was 5.17 at CatB, below 4.60 on CatC, below 4.60 on CatH and 6.70 on CatZ (Cathepsin Z). Besides, in the test on cathepsin targets, the Target entry is “Cat Z”.

With `CCC[C@H](NC(=O)C1O[C@@H]1C(=O)O)C(=O)N[C@@H](Cc1ccc(O)cc1)C(N)=O` (stereo partly drawn) [Compound 77], the pIC50 at CatB is 7.52; on CatC, 6.35; on CatH it was 6.13; at CatZ (Cathepsin Z) it was 7.00. For the same compound, the Target entry with cathepsin targets was “General”.

Regarding `CCC[C@H](NC(=O)C1O[C@H]1C(=O)NCC(=O)O)C(=O)N[C@@H](Cc1ccc(O)cc1)C(N)=O` (stereo partly drawn) [Compound 78], the pIC50 at CatB is 6.55; on CatC, below 5.00; at CatH it was below 5.00; at CatZ (Cathepsin Z) it was 6.00. For the same compound, the Target entry in the test with cathepsin targets is “Cat B”.

Consider `CCC[C@H](NC(=O)C1O[C@@H]1C(=O)NCC(=O)O)C(=O)N[C@@H](Cc1ccc(O)cc1)C(N)=O` (stereo partly drawn) [Compound 79], for which the pIC50 is 6.72 at CatB, 4.71 on CatC, 5.23 on CatH and 5.89 on CatZ (Cathepsin Z). Moreover, the Target entry in the test on cathepsin targets was “Cat B”.

`Cc1ccc(C[C@H](NC(=O)C2O[C@H]2C(=O)NCC(=O)O)C(=O)N[C@@H](Cc2ccc(O)cc2)C(N)=O)cc1` (stereo partly drawn) [Compound 80]: the pIC50 at CatB is below 5.00; at CatC, below 5.00; on CatH it was below 5.00; at CatZ (Cathepsin Z) it was 6.10. For the same compound, the Target entry in the test with cathepsin targets is “Cat B & Z”.

In the case of `Cc1ccc(C[C@H](NC(=O)C2O[C@@H]2C(=O)NCC(=O)O)C(=O)NCc2cccc3ccccc23)cc1` (stereo partly drawn) [Compound 121], the Target entry with cathepsin targets is reported as “Cat Z”.

Turning to `CCOC(=O)[C@H]1O[C@@H]1C(=O)N[C@@H](Cc1ccc(C)cc1)C(=O)NCc1cccc2ccccc12` [Compound 122], in the test on cathepsin targets, the Target entry is listed as “Cat Z”.

With `CCC[C@H](NC(=O)C1O[C@@H]1C(=O)OCC)C(=O)NCCc1ccccn1` (stereo partly drawn) [Compound 123], in the test on cathepsin targets, the Target result was “General”.

For `CCC[C@H](NC(=O)[C@@H]1OC1C(=O)OCC)C(=O)NCCc1ccccn1` (stereo partly drawn) [Compound 124], the Target entry in the test on cathepsin targets is recorded as “General”.

In the case of `CCOC(=O)C1O[C@H]1C(=O)N[C@@H](Cc1ccc(C)cc1)C(=O)NCCc1ccccn1` (stereo partly drawn) [Compound 126], the Target entry with cathepsin targets is given as “General”.

Consider `CCOC(=O)[C@H]1O[C@@H]1C(=O)N[C@@H](CC(C)C)C(=O)NCCc1ccc(O)cc1` [JPMOEt, reference compound], for which the pIC50 is 7.40 at CatB, 5.05 at CatC, 5.33 on CatH and 6.70 on CatZ (Cathepsin Z). Further, in the test with cathepsin targets, the Target result is recorded as “General”.

Values taken from US8673904B2, “Epoxide inhibitors of cysteine proteases” (The Board of Trustees of the Leland Stanford Junior …, priority 2006, dated 2014).
